We go through one compound from patent US8623661B2, “Iron chelating agent, method for producing same, method for determining amount of iron ions and method for trapping iron ions” (National University Corporation Asahikawa Medical College, priority 2008, dated 2014).

The assay deals with iron nitrilotriacetate complex (Fe-NTA). As to the kind of experiment: Evaluation C: chelating ability in MOPS/acetonitrile solvent, Fe-NTA solution. In kind it is binding. The protocol: Evaluation was carried out by the following evaluation method C as to whether or not the iron chelating agent according to Examples 1 to 3 had chelating ability with iron in 3-morpholinopropanesulfonic acid (C7H15NO4S;MOPS) and acetonitrile solution as solvents used in high performance liquid chromatography (HPLC).
2.09 g of morpholinopropanesulfonic acid (C7H15NO4S; FW=209.26, Code 341-01801, Lot PX013, manufactured by Dojindo/Wako Corporation) was added to a 100 mL Erlenmeyer flask, 80 mL of ultrapure water (pure water produced by an ultrapure water production system manufactured by Millipore Corporation (Milli-Q); “Milli-Q water”) was added thereto and dissolved [pH 4.15 (24.4° C.)]. To this solution, 1N sodium hydroxide solution (1 mol/1 sodium hydroxide solution, Code 192-02175, Lot SEP7274, manufactured by Wako Pure Chemicals Industries) was added in 100 μl portions, the pH was adjusted to 7.0 and further Milli-Q water was made up to 100 mL in a measuring cylinder, whereby 100 mL of MOPS solution (pH 6.99) was prepared.
An iron chelating agent solution having an iron chelating agent concentration of 50 mM was prepared with respect to the iron chelating agent according to Examples 1 to 3, in the same manner as the preparation method of the iron chelating solution in evaluation A of the iron chelating agent.
Further, 100 mM of MOPS solution (pH6.99) prepared by the preparation method of the MOPS solution was used.
Furthermore, a stock solution of acetonitrile (C2H3N, FW=41.05, Code 347-06641, Lot WPI96, manufactured by Dojindo/Wako corporation) was used.
13.8 mL of Milli-Q water was taken in a 50 mL conical tube, 1.2 mL of each of the iron chelating agent solutions (Fe-Ser•Na (50 mM), Fe-His•Na (50 mM), Fe-Glu•Na (50 mM)) according to the iron chelating agents of Examples 1 to 3 was added, 1.0 mL of 100 mM MOPS solution was added thereto, and a further 4.0 mL of acetonitrile solution was added to produce an iron chelating solution using MOPS. The iron chelating agent solutions using MOPS and iron chelating agent according to Examples 1 to 3 were defined respectively as Fe-Ser•Na (MOPS solution)” (iron chelating agent according to
Example 1), “Fe-His•Na (MOPS solution)” (iron chelating agent according to Example 2), and “Fe-Glu•Na(MOPS solution)” (iron chelating agent according to Example 3).
Further, iron nitrilotriacetate complex solution (“Fe-NTA solution (20 mM)”) having a concentration of iron ions of 20 mM and iron nitrilotriacetate complex solution (“Fe-NTA solution (2 mM)”) having a concentration of iron ions of 2 mM were prepared, in the same manner as the preparation method of iron nitrilotriacetate complex solution in evaluation B of the iron chelating agent.
Further, Fe-NTA solution (20 mM) was added to and mixed with each of the iron chelating agent solutions [Fe-Ser•Na (MOPS solution), Fe-His•Na (MOPS solution), Fe-Glu•Na (MOPS solution)] using MOPS. […] Further, Fe-NTA solution (2 mM) was added and mixed thereto as described above.

Take `O=C(O)C(CO)NCc1ccccc1O` (centres unmarked) [Example 1, o-[(1-carboxy-2-hydroxyethyl)-amino-methyl]-phenol]: the “colour of the solution after mixing” value reads like this: (Fe-NTA solution (2 mM) added to chelating agent MOPS solution (MOPS, acetonitrile)) “dark brown-colored”; (Fe-NTA solution (20 mM) added to chelating agent MOPS solution (MOPS, acetonitrile)) “dark brown-colored”.
